From the NIST ThermoML archive (doi:10.1021/je060107n)
Numbers after ± are expanded uncertainties.

Assay: mn = molality of the nth substance listed, in mol/kg
Conditions: 101 kPa, Liquid; for mass density: Pycnometric method; for viscosity / speed of sound: 318.15 K; for viscosity: Capillary tube (Ostwald / Ubbelohde) method; for speed of sound: Linear variable-path acoustic interferometer

CC(=O)[O-].CC(=O)[O-].[Mg+2] [magnesium acetate] + O
Conditions | mass density [kg/m3]
314.7 K, m1 = 1.608 | 1097.8 ± 0.7
314.75 K, m1 = 2.134 | 1125.2 ± 0.8
314.85 K, m1 = 2.622 | 1148.5 ± 0.8
315 K, m1 = 5.165 | 1241.7 ± 0.9
315.2 K, m1 = 0.1671 | 1003.8 ± 0.7
315.25 K, m1 = 3.437 | 1186.9 ± 0.8
315.55 K, m1 = 3.819 | 1198.5 ± 0.8
315.65 K, m1 = 3.043 | 1166.4 ± 0.8
315.85 K, m1 = 1.866 | 1110.4 ± 0.8
316.05 K, m1 = 1.106 | 1068 ± 0.7
316.05 K, m1 = 6.187 | 1269 ± 0.9
316.25 K, m1 = 0.0414 | 994.01 ± 0.67
316.35 K, m1 = 6.545 | 1276.6 ± 0.9
316.7 K, m1 = 0.646 | 1037.6 ± 0.7
316.95 K, m1 = 0.0831 | 996.85 ± 0.69
317.05 K, m1 = 2.622 | 1147.3 ± 0.8
317.1 K, m1 = 0.4247 | 1021.9 ± 0.7
317.15 K, m1 = 1.608 | 1096.6 ± 0.7
317.3 K, m1 = 2.134 | 1124.1 ± 0.8
317.3 K, m1 = 5.732 | 1255.6 ± 0.9
317.7 K, m1 = 3.819 | 1197.2 ± 0.8
317.9 K, m1 = 6.187 | 1267.7 ± 0.9
318 K, m1 = 4.547 | 1220.8 ± 0.9
318.2 K, m1 = 1.866 | 1109.3 ± 0.8
318.25 K, m1 = 6.545 | 1275.3 ± 0.9
318.5 K, m1 = 0.0414 | 992.99 ± 0.68
318.6 K, m1 = 1.327 | 1079.4 ± 0.8
318.6 K, m1 = 2.411 | 1138.3 ± 0.8
318.85 K, m1 = 5.165 | 1239 ± 0.9
319.1 K, m1 = 1.354 | 1080.6 ± 1.1
319.15 K, m1 = 0.646 | 1036.5 ± 0.7
319.25 K, m1 = 2.622 | 1146.1 ± 0.8
319.35 K, m1 = 0.8751 | 1050.8 ± 0.7
319.4 K, m1 = 0.0831 | 995.82 ± 0.69
319.5 K, m1 = 1.608 | 1095.5 ± 0.7
319.5 K, m1 = 2.134 | 1122.8 ± 0.8
319.65 K, m1 = 3.437 | 1184.4 ± 0.9

Conditions | speed of sound [m/s] | viscosity [mPa·s]
m1 = 0.0414 | 1539.3 ± 1.9 | 0.6244 ± 0.0082
m1 = 0.0831 | 1546 ± 1.9 | 0.6418 ± 0.0085
m1 = 0.1671 | 1552.2 ± 1.9 | 0.6857 ± 0.009
m1 = 0.4247 | 1587.9 ± 1.9 | 0.8341 ± 0.011
m1 = 0.646 | 1613.4 ± 1.9 | 0.9967 ± 0.013
m1 = 0.8751 | 1638.1 ± 1.9 | 1.163 ± 0.015
m1 = 1.106 | 1661.5 ± 2 | 1.405 ± 0.018
m1 = 1.354 | 1683.6 ± 2 | 1.679 ± 0.022
m1 = 1.608 | 1705.8 ± 2 | 1.679 ± 0.022
m1 = 1.866 | 1727.8 ± 2 | 2.437 ± 0.032
m1 = 2.134 | 1749.8 ± 2 | 2.967 ± 0.04
m1 = 2.411 | 1773.8 ± 2 | 3.777 ± 0.051
m1 = 2.622 | 1782.8 ± 2 | 4.254 ± 0.058
m1 = 3.043 | 1808.1 ± 2.1 | 5.774 ± 0.08
m1 = 3.437 | 1832 ± 2.1 | 8.453 ± 0.12
m1 = 3.819 | 1846.6 ± 2.1 | –
m1 = 4.001 | – | 12.63 ± 0.18
m1 = 4.547 | 1868.1 ± 2.1 | –
m1 = 4.563 | – | 19.6 ± 0.29
m1 = 4.929 | – | 24.03 ± 0.38
m1 = 5.165 | 1882.7 ± 2.1 | –
m1 = 5.41 | – | 41.38 ± 0.57
m1 = 5.732 | 1888.5 ± 2.2 | 53.77 ± 0.88
m1 = 6.187 | – | 87.61 ± 1.7
